The assay deals with T1, recombinant human cGAS (aa147-522) (Homo sapiens, UniProt Q8N884).
T1 construct: recombinant human cGAS (aa147-522); His6-SUMO (cleaved yes); made in house; host or cells: E. coli BL21/pLys
Kind of assay: In vitro inhibition assay of cGAS activity (ATP consumption, KinaseGlo Max). The settings on record: Table 2, read-out: cGAS Inhibition Results IC50. The class given is biochemical. On the procedure:
Expression and Purification of Recombinant cGAS Protein: cDNA encoding full-length or amino acids […] of human cGAS was inserted into a modified pET28a vector containing an in-frame His6-SUMO tag. The E. coli strain BL21/pLys harboring the plasmid was induced with 0.5 mM IPTG at 18° C. overnight. His6-SUMO tag was removed by a SUMO protease digestion following purification of the His6-SUMO-cGAS as described previously (Sun et al, 2013, Science 339, 786).
In vitro inhibition assay of cGAS activity: A 60 μL mixture containing 20 mM Tris-Cl, pH 7.5, 5 mM MgCl2, 0.2 mg/mL BSA, 0.01 mg/mL Herring testis DNA, 6.6 μM ATP, 0.1 mM GTP, 1.5 μg/mL of recombinant human cGAS (aa147-522) and serial dilutions of a test compound in DMSO was added to a 96-well plate and incubated at 37° C. for 20 minutes. At the end of reaction, 40 μL of KinaseGlo Max (Promega) was added and chemiluminescence was measured with a luminometer. Inhibitory effect of a compound is evaluated by plotting percentage of ATP consumption against logarithm of compound concentrations. IC50 value was calculated using GraphPad Prism 8 (GraphPad Software, Inc.).
The letter codes for cGAS IC50 include: A (<2 μM); B (2-30 μM); C (>30 μM).
In general terms: Kinase-Glo reads ATP consumption through a luciferase reaction.

Where only a bound is given, the exact number is not on record here.

T1 sequence (Q8N884 147-522): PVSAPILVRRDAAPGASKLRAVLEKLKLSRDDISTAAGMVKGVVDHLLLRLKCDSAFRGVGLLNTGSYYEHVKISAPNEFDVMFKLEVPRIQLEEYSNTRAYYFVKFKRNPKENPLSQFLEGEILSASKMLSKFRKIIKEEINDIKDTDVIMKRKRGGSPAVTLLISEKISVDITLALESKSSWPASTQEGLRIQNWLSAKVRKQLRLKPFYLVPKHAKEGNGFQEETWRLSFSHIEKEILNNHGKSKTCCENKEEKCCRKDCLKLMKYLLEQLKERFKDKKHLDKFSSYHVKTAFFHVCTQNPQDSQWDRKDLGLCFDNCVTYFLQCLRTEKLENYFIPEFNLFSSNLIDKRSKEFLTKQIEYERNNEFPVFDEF

`N#Cc1cn(-c2cc(-c3ccccc3)nc3cc(Cl)ccc23)cn1` [I-62]: the IC50 was above 30 µM.

As to `OCc1cn(-c2cc(-c3ccccc3)nc3cc(Cl)ccc23)cn1` [I-63], the IC50 is above 30 µM.

For `N#CCc1cn(-c2cc(-c3ccccc3)nc3cc(Cl)ccc23)cn1` [I-64], the IC50 is above 30 µM.

In the case of `Clc1ccc2c(-n3cncc3C3CC3)cc(-c3ccccc3)nc2c1` [I-65], the IC50 was above 30 µM.

In the case of `CC(=O)c1cn(-c2cc(-c3ccccc3)nc3cc(Cl)ccc23)cn1` [I-66], the IC50 was above 30 µM.

Consider `Clc1ccc2c(-c3cn[nH]c3)cc(-c3ccccc3)nc2c1` [I-67], for which the IC50 was in the range of 2 to 30 µM.

`Clc1ccc2c(-c3ccn[nH]3)cc(-c3ccccc3)nc2c1` [I-68]: the IC50 is above 30 µM.

`Clc1ccc2c(-c3cccnc3)cc(-c3ccccc3)nc2c1` [I-69]: the IC50 is above 30 µM.

Regarding `Clc1ccc2c(-c3ccncc3)cc(-c3ccccc3)nc2c1` [I-70], the IC50 was above 30 µM.

Take `Clc1ccc2c(-c3cncnc3)cc(-c3ccccc3)nc2c1` [I-71]: the IC50 was above 30 µM.

As for `Clc1ccc2c(-c3cc[nH]c3)cc(-c3ccccc3)nc2c1` [I-72], the IC50 was above 30 µM.

As to `Oc1ccc(-c2cc(-c3ccccc3)nc3cc(Cl)ccc23)cn1` [I-73], the IC50 was above 30 µM.

Regarding `O=C(O)c1cccc(-c2cc(-c3ccn[nH]3)c3ccc(Cl)cc3n2)c1` [I-74, 3-(7-Chloro-4-(1H-pyrazol-5-yl)quinolin-2-yl)benzoic acid], the IC50 was above 30 µM.

Turning to `O=C(O)c1cc(-c2cc(Cl)c3ccc(Cl)c(Cl)c3n2)ccc1O` [I-75, 2-Hydroxy-5-(4,7,8-trichloroquinolin-2-yl)benzoic acid], the IC50 was above 30 µM.

Regarding `Clc1ccc2c(-n3ccnc3)cc(N3CCNCC3)nc2c1` [I-76, 7-chloro-4-(1H-imidazol-1-yl)-2-(piperazin-1-yl)quinoline], the IC50 was in the range of 2 to 30 µM.

Consider `O=C(CO)N1CCN(c2cc(-n3ccnc3)c3ccc(Cl)cc3n2)CC1` [I-77, 1-(4-(7-chloro-4-(1H-imidazol-1-yl)quinolin-2-yl)piperazin-1-yl)-2-hydroxyethan-1-one], for which the IC50 was above 30 µM.

For `CS(=O)(=O)N1CCN(c2cc(-n3ccnc3)c3ccc(Cl)cc3n2)CC1` [I-78, 7-chloro-4-(1H-imidazol-1-yl)-2-(4-(methylsulfonyl)piperazin-1-yl) quinoline], the IC50 is above 30 µM.

Regarding `O=C(O)C1CN(c2cc(-n3ccnc3)c3ccc(Cl)c(Cl)c3n2)CCN1` (stereo not shown) [I-79, 4-(7,8-Dichloro-4-(1H-imidazol-1-yl)quinolin-2-yl)piperazine-2-carboxylic acid], the IC50 was below 2 µM.

Turning to `CCN1CCN(c2cc(-n3ccnc3)c3ccc(Cl)c(Cl)c3n2)CC1C(=O)O` (stereo not shown) [I-80], the IC50 is below 2 µM.

On to `O=C(O)C1CN(c2cc(-n3ccnc3)c3ccc(Cl)c(Cl)c3n2)CCN1CCO` (stereo not shown) [I-81], for which the IC50 is below 2 µM.

Turning to `CN1CCN(c2cc(-n3ccnc3)c3ccc(Cl)c(Cl)c3n2)CC1C(=O)O` (stereo not shown) [I-82, 4-(7,8-Dichloro-4-(1H-imidazol-1-yl)quinolin-2-yl)-1-methylpiperazine-2-carboxylic acid], the IC50 was below 2 µM.

Consider `O=C(O)C1CN(c2cc(-n3ccnc3)c3ccc(Cl)c(Cl)c3n2)CCN1C(=O)CO` (stereo not shown) [I-83, 4-(7,8-dichloro-4-(1H-imidazol-1-yl)quinolin-2-yl)-1-(2-hydroxyacetyl)piperazine-2-carboxylic acid], for which the IC50 was in the range of 2 to 30 µM.

Consider `O=C1CN(c2cc(-n3ccnc3)c3ccc(Cl)cc3n2)CC(C(=O)O)N1` (stereo not shown) [I-84], for which the IC50 lay in the range of 2 to 30 µM.

In the case of `O=C1CN(c2cc(-n3ccnc3)c3ccc(Cl)cc3n2)CCN1` [I-85], the IC50 is below 2 µM.

On to `O=S1(=O)CCN(c2cc(-n3ccnc3)c3ccc(Cl)c(Cl)c3n2)CC1` [I-87], for which the IC50 was 2 to 30 µM.

Consider `O=C1CCN(c2cc(-n3ccnc3)c3ccc(Cl)c(Cl)c3n2)CCN1` [I-88], for which the IC50 was in the range of 2 to 30 µM.

With `O=C(O)C1CN(c2cc(-n3ccnc3)c3ccc(Cl)cc3n2)CCS1` (stereo not shown) [I-89], the IC50 lay in the range of 2 to 30 µM.

`O=C(O)C1CN(c2cc(-n3ccnc3)c3ccc(Cl)c(Cl)c3n2)CCO1` (stereo not shown) [I-91]: the IC50 was below 2 µM.

Regarding `O=C(O)[C@@H]1COCCN1c1cc(-c2cn[nH]c2)c2ccc(Cl)c(Cl)c2n1` [I-93], the IC50 is below 2 µM.

As to `O=C(O)CC1COCCN1c1cc(-n2ccnc2)c2ccc(Cl)c(Cl)c2n1` (stereo not shown) [I-94], the IC50 is below 2 µM.

Turning to `Clc1ccc2c(-n3ccnc3)cc(N3CCOCC3)nc2c1Cl` [I-95], the IC50 lay in the range of 2 to 30 µM.

On to `NS(=O)(=O)OCC1CN(c2cc(-n3ccnc3)c3ccc(Cl)c(Cl)c3n2)CCO1` (stereo not shown) [I-96], for which the IC50 was below 2 µM.

As for `OCC1COCCN1c1cc(-n2ccnc2)c2ccc(Cl)c(Cl)c2n1` (stereo not shown) [I-97], the IC50 is 2 to 30 µM.

Turning to `OCC1CN(c2cc(-n3ccnc3)c3ccc(Cl)c(Cl)c3n2)CCO1` (stereo not shown) [I-98], the IC50 lay within 2 to 30 µM.

For `OCC1CN(c2cc(-n3ccnc3)c3ccc(Cl)cc3n2)CCCO1` (stereo not shown) [I-99], the IC50 was in the range of 2 to 30 µM.

For the molecule `O=S(=O)(NC1CCCN(c2cc(-n3ccnc3)c3ccc(Cl)cc3n2)C1)C1CC1` (stereo not shown) [I-100], the IC50 was below 2 µM.

`O=S(=O)(NC1CCCN(c2cc(-n3ccnc3)c3ccc(Cl)cc3n2)C1)c1ncc[nH]1` (stereo not shown) [I-101]: the IC50 is below 2 µM.

With `O=S(=O)(NC1CCCN(c2cc(-n3ccnc3)c3ccc(Cl)cc3n2)C1)c1cccnc1` (stereo not shown) [I-102], the IC50 lay in the range of 2 to 30 µM.

Regarding `Cn1cnc(S(=O)(=O)NC2CCCN(c3cc(-n4ccnc4)c4ccc(Cl)cc4n3)C2)c1` (stereo not shown) [I-103], the IC50 fell in the range of 2 to 30 µM.

On to `NC(=O)NC1CCCN(c2cc(-n3ccnc3)c3ccc(Cl)cc3n2)C1` (stereo not shown) [I-104, 1-(1-(7-chloro-4-(1H-imidazol-1-yl)quinolin-2-yl)piperidin-3-yl)urea], for which the IC50 is 2 to 30 µM.

With `CS(=O)(=O)NC1CCCN(c2cc(-n3ccnc3)c3ccc(Cl)cc3n2)C1` (stereo not shown) [I-105, N-(1-(7-chloro-4-(1H-imidazol-1-yl)quinolin-2-yl)piperidin-3-yl)methanesulfonamide], the IC50 is 2 to 30 µM.

On to `O=C(CO)NC1CCCN(c2cc(-n3ccnc3)c3ccc(Cl)cc3n2)C1` (stereo not shown) [I-106, N-(1-(7-chloro-4-(1H-imidazol-1-yl)quinolin-2-yl)piperidin-3-yl)-2-hydroxyacetamide], for which the IC50 is 2 to 30 µM.

Regarding `O=S(=O)(NC1CCCN(c2cc(-n3ccnc3)c3ccc(Cl)cc3n2)C1)c1ccccc1` (stereo not shown) [I-107], the IC50 is above 30 µM.

With `NC1CCCN(c2cc(-n3ccnc3)c3ccc(Cl)cc3n2)C1` (stereo not shown) [I-108, 1-(7-chloro-4-(1H-imidazol-1-yl)quinolin-2-yl)piperidin-3-amine], the IC50 was above 30 µM.

On to `Cn1cc(S(=O)(=O)NC2CCCN(c3cc(-n4ccnc4)c4ccc(Cl)cc4n3)C2)cn1` (stereo not shown) [I-109], for which the IC50 was above 30 µM.

For the molecule `O=[PH](O)OCC1CCCN(c2cc(-n3ccnc3)c3ccc(Cl)c(Cl)c3n2)C1` (stereo not shown) [I-110], the IC50 is below 2 µM.

With `O=[PH](O)OC1CCCN(c2cc(-n3ccnc3)c3ccc(Cl)c(Cl)c3n2)C1` (stereo not shown) [I-111, 1-(7,8-dichloro-4-(1H-imidazol-1-yl)quinolin-2-yl)piperidin-3-yl hydrogen phosphonate], the IC50 was below 2 µM.

On to `O=P(O)(O)OC1CCCN(c2cc(-n3ccnc3)c3ccc(Cl)c(Cl)c3n2)C1` (stereo not shown) [I-112, 1-(7,8-dichloro-4-(1H-imidazol-1-yl)quinolin-2-yl)piperidin-3-yl dihydrogen phosphate], for which the IC50 is below 2 µM.

Consider `O=P(O)(O)OCC1CCCN(c2cc(-n3ccnc3)c3ccc(Cl)c(Cl)c3n2)C1` (stereo not shown) [I-113, (1-(7,8-dichloro-4-(1H-imidazol-1-yl)quinolin-2-yl)piperidin-3-yl)methyl dihydrogen phosphate], for which the IC50 is below 2 µM.

Take `O=P(O)(O)CC1CCCN(c2cc(-n3ccnc3)c3ccc(Cl)c(Cl)c3n2)C1` (stereo not shown) [I-114]: the IC50 lay within 2 to 30 µM.

As to `O=S(=O)(O)C1CCCN(c2cc(-n3ccnc3)c3ccc(Cl)c(Cl)c3n2)C1` (stereo not shown) [I-115], the IC50 was below 2 µM.

Consider `CS(=O)(=O)C1CCCN(c2cc(-n3ccnc3)c3ccc(Cl)cc3n2)C1` (stereo not shown) [I-117], for which the IC50 was 2 to 30 µM.

With `NS(=O)(=O)OCC1CCCN(c2cc(-n3ccnc3)c3ccc(Cl)c(Cl)c3n2)C1` (stereo not shown) [I-118], the IC50 is below 2 µM.

For the molecule `NS(=O)(=O)O[C@H]1CCCN(c2cc(-n3ccnc3)c3ccc(Cl)c(Cl)c3n2)C1` [I-119, (S)-1-(7,8-dichloro-4-(1H-imidazol-1-yl)quinolin-2-yl)piperidin-3-yl sulfamate], the IC50 lay in the range of 2 to 30 µM.

For the molecule `OB(O)C1CCCN(c2cc(-n3ccnc3)c3ccc(Cl)c(Cl)c3n2)C1` (stereo not shown) [I-120, (1-(7,8-Dichloro-4-(1H-imidazol-1-yl)quinolin-2-yl)piperidin-3-yl)boronic acid], the IC50 was below 2 µM.

Take `Clc1ccc2c(-n3ccnc3)cc(N3CCCCC3)nc2c1Cl` [I-121]: the IC50 was in the range of 2 to 30 µM.

Turning to `O=C(O)C1CCCN(c2cc(-n3ccnc3)c3ccc(Cl)cc3n2)C1` (stereo not shown) [I-122], the IC50 was 2 to 30 µM.

As to `O=C(O)CC1CCCN(c2cc(-n3ccnc3)c3ccc(Cl)cc3n2)C1` (stereo not shown) [I-123, 2-(1-(7-chloro-4-(1H-imidazol-1-yl)quinolin-2-yl)piperidin-3-yl)acetic acid], the IC50 fell in the range of 2 to 30 µM.

For orientation: IC50 means the midpoint of a concentration-inhibition curve.

The record behind these values is patent US11873291B2, “Quinoline cGAS antagonist compounds” (ImmuneSensor Therapeutics, Inc., priority 2020, dated 2024).
